Laboratory results reported in PubChem BioAssay (NCI).
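Dose response: 5 concentrations. Exposure: 48 h. Format: 96-well plates. Endpoint: linear interpolation; highest concentration if not reached. TGI is the concentration that stops growth completely.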

What was measured:
Assay in all cases: NCI tumour cell line growth inhibition, 48 h
HCT-116 colon = system: HCT-116 colon
SF-539 CNS = system: SF-539 CNS
OVCAR-4 ovarian = system: OVCAR-4 ovarian
U251 CNS = system: U251 CNS
HL-60(TB) leukemia = system: HL-60(TB) leukemia
MDA-MB-231 breast = system: MDA-MB-231 breast
786-0 renal = system: 786-0 renal
SR leukemia = system: SR leukemia
BT-549 breast = system: BT-549 breast
NCI-H522 lung = system: NCI-H522 lung
OVCAR-3 ovarian = system: OVCAR-3 ovarian
PC-3 prostate = system: PC-3 prostate
K-562 leukemia = system: K-562 leukemia
NCI-H460 lung = system: NCI-H460 lung
NCI/ADR-RES ovarian = system: NCI/ADR-RES ovarian
HT29 colon = system: HT29 colon
RXF 393 renal = system: RXF 393 renal
SW-620 colon = system: SW-620 colon
LOX IMVI melanoma = system: LOX IMVI melanoma
M14 melanoma = system: M14 melanoma
SNB-75 CNS = system: SNB-75 CNS
HOP-62 NSCLC = system: HOP-62 NSCLC
SF-268 CNS = system: SF-268 CNS
SK-OV-3 ovarian = system: SK-OV-3 ovarian
MOLT-4 leukemia = system: MOLT-4 leukemia
CCRF-CEM leukemia = system: CCRF-CEM leukemia
IGROV1 ovarian = system: IGROV1 ovarian
COLO 205 colon = system: COLO 205 colon
MALME-3M melanoma = system: MALME-3M melanoma
KM12 colon = system: KM12 colon
UACC-257 melanoma = system: UACC-257 melanoma
SK-MEL-5 melanoma = system: SK-MEL-5 melanoma
EKVX NSCLC = system: EKVX NSCLC
SN12C renal = system: SN12C renal
NCI-H226 lung = system: NCI-H226 lung
RPMI-8226 leukemia = system: RPMI-8226 leukemia
UACC-62 melanoma = system: UACC-62 melanoma
ACHN renal = system: ACHN renal
MCF7 breast = system: MCF7 breast
SF-295 CNS = system: SF-295 CNS
A549 NSCLC = system: A549 NSCLC
NCI-H23 lung = system: NCI-H23 lung
HCC-2998 colon = system: HCC-2998 colon
SNB-19 CNS = system: SNB-19 CNS
TK-10 renal = system: TK-10 renal
HS 578T breast = system: HS 578T breast
OVCAR-8 ovarian = system: OVCAR-8 ovarian
HCT-15 colon = system: HCT-15 colon
MDA-N = system: MDA-N
MDA-MB-435 = system: MDA-MB-435
DU-145 prostate = system: DU-145 prostate
A498 renal = system: A498 renal
OVCAR-5 ovarian = system: OVCAR-5 ovarian
SK-MEL-28 melanoma = system: SK-MEL-28 melanoma
UO-31 renal = system: UO-31 renal
SK-MEL-2 melanoma = system: SK-MEL-2 melanoma
CAKI-1 renal = system: CAKI-1 renal
T-47D breast = system: T-47D breast
HOP-92 NSCLC = system: HOP-92 NSCLC

Structure (SMILES): CCCC(=O)OC1CC(n2cc(F)c(=O)[nH]c2=O)OC1CO (stereo unspecified)
- TGI (HCT-116 colon): > 10 µM
- TGI (SF-539 CNS): 0.385 µM
- TGI (OVCAR-4 ovarian): > 10 µM
- TGI (U251 CNS): > 10 µM
- TGI (HL-60(TB) leukemia): > 10 µM
- TGI (MDA-MB-231 breast): > 10 µM
- TGI (786-0 renal): > 10 µM
- TGI (SR leukemia): > 10 µM
- TGI (BT-549 breast): > 10 µM
- TGI (NCI-H522 lung): > 10 µM
- TGI (OVCAR-3 ovarian): > 10 µM
- TGI (PC-3 prostate): > 10 µM
- TGI (K-562 leukemia): > 10 µM
- TGI (NCI-H460 lung): > 10 µM
- TGI (NCI/ADR-RES ovarian): > 10 µM
- TGI (HT29 colon): > 10 µM
- TGI (RXF 393 renal): > 10 µM
- TGI (SW-620 colon): > 10 µM
- TGI (LOX IMVI melanoma): > 10 µM
- TGI (M14 melanoma): > 5.96 µM
- TGI (SNB-75 CNS): > 8.14 µM
- TGI (HOP-62 NSCLC): > 10 µM
- TGI (SF-268 CNS): > 10 µM
- TGI (SK-OV-3 ovarian): > 10 µM
- TGI (MOLT-4 leukemia): > 10 µM
- TGI (CCRF-CEM leukemia): > 10 µM
- TGI (IGROV1 ovarian): > 10 µM
- TGI (COLO 205 colon): > 10 µM
- TGI (MALME-3M melanoma): > 10 µM
- TGI (KM12 colon): > 10 µM
- TGI (UACC-257 melanoma): > 10 µM
- TGI (SK-MEL-5 melanoma): 1.84 µM
- TGI (EKVX NSCLC): > 10 µM
- TGI (SN12C renal): > 10 µM
- TGI (NCI-H226 lung): > 10 µM
- TGI (RPMI-8226 leukemia): > 10 µM
- TGI (UACC-62 melanoma): > 10 µM
- TGI (ACHN renal): > 10 µM
- TGI (MCF7 breast): > 10 µM
- TGI (SF-295 CNS): > 10 µM
- TGI (A549 NSCLC): > 10 µM
- TGI (NCI-H23 lung): 1.11 µM
- TGI (HCC-2998 colon): > 10 µM
- TGI (SNB-19 CNS): > 10 µM
- TGI (TK-10 renal): > 8.81 µM
- TGI (HS 578T breast): > 10 µM
- TGI (OVCAR-8 ovarian): > 10 µM
- TGI (HCT-15 colon): > 10 µM
- TGI (MDA-N): > 10 µM
- TGI (MDA-MB-435): > 10 µM
- TGI (DU-145 prostate): > 3.23 µM
- TGI (A498 renal): > 10 µM
- TGI (OVCAR-5 ovarian): > 10 µM
- TGI (SK-MEL-28 melanoma): > 10 µM
- TGI (UO-31 renal): > 10 µM
- TGI (SK-MEL-2 melanoma): > 10 µM
- TGI (CAKI-1 renal): > 10 µM
- TGI (T-47D breast): > 10 µM

Structure (SMILES): O=S(=O)(O)c1ccc(Nc2ccnc3cc(Cl)ccc23)cc1
- TGI (HCT-116 colon): > 100 µM
- TGI (SF-539 CNS): > 100 µM
- TGI (OVCAR-4 ovarian): > 100 µM
- TGI (U251 CNS): > 100 µM
- TGI (HL-60(TB) leukemia): > 100 µM
- TGI (MDA-MB-231 breast): > 100 µM
- TGI (786-0 renal): > 100 µM
- TGI (SR leukemia): > 100 µM
- TGI (BT-549 breast): > 100 µM
- TGI (NCI-H522 lung): > 100 µM
- TGI (OVCAR-3 ovarian): > 100 µM
- TGI (PC-3 prostate): > 100 µM
- TGI (K-562 leukemia): > 100 µM
- TGI (NCI/ADR-RES ovarian): > 100 µM
- TGI (HT29 colon): > 100 µM
- TGI (RXF 393 renal): > 100 µM
- TGI (SW-620 colon): > 100 µM
- TGI (LOX IMVI melanoma): > 100 µM
- TGI (M14 melanoma): > 100 µM
- TGI (SNB-75 CNS): > 100 µM
- TGI (HOP-62 NSCLC): > 100 µM
- TGI (SF-268 CNS): > 100 µM
- TGI (SK-OV-3 ovarian): > 100 µM
- TGI (MOLT-4 leukemia): > 100 µM
- TGI (CCRF-CEM leukemia): > 100 µM
- TGI (IGROV1 ovarian): > 100 µM
- TGI (COLO 205 colon): > 100 µM
- TGI (MALME-3M melanoma): > 100 µM
- TGI (KM12 colon): > 100 µM
- TGI (UACC-257 melanoma): > 100 µM
- TGI (SK-MEL-5 melanoma): > 100 µM
- TGI (EKVX NSCLC): > 100 µM
- TGI (SN12C renal): > 100 µM
- TGI (NCI-H226 lung): > 100 µM
- TGI (RPMI-8226 leukemia): > 100 µM
- TGI (UACC-62 melanoma): > 100 µM
- TGI (ACHN renal): > 100 µM
- TGI (MCF7 breast): > 100 µM
- TGI (SF-295 CNS): > 100 µM
- TGI (A549 NSCLC): > 100 µM
- TGI (NCI-H23 lung): > 100 µM
- TGI (HCC-2998 colon): > 100 µM
- TGI (SNB-19 CNS): > 100 µM
- TGI (TK-10 renal): > 100 µM
- TGI (HS 578T breast): > 100 µM
- TGI (OVCAR-8 ovarian): > 100 µM
- TGI (HCT-15 colon): > 100 µM
- TGI (MDA-N): > 100 µM
- TGI (MDA-MB-435): > 100 µM
- TGI (DU-145 prostate): > 100 µM
- TGI (A498 renal): > 100 µM
- TGI (OVCAR-5 ovarian): > 100 µM
- TGI (SK-MEL-28 melanoma): > 100 µM
- TGI (UO-31 renal): > 100 µM
- TGI (SK-MEL-2 melanoma): > 100 µM
- TGI (HOP-92 NSCLC): > 100 µM
- TGI (CAKI-1 renal): > 100 µM
- TGI (T-47D breast): > 100 µM
